Measurements published in ChEMBL document CHEMBL1201862, “PubChem BioAssay data set” (2004).
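Five concentrations, 48 hours, 96-well plates. GI50 is the concentration that inhibits growth by half.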 Calls of active or inactive are those of the source. Cut-off read from the data, not from the text of the source: active = GI50 up to about 1.1 µM and inactive = higher.

Columns and labels:
Assay in all cases: NCI-60 cell line screen, 48 h
NCI/ADR-RES = test system: NCI/ADR-RES
M14 = test system: M14
MCF7 = test system: MCF7
MDA-MB-231 = test system: MDA-MB-231
PC-3 = test system: PC-3
OVCAR-3 = test system: OVCAR-3
U-251 = test system: U-251
HT-29 = test system: HT-29
SK-OV-3 = test system: SK-OV-3
SK-MEL-2 = test system: SK-MEL-2
HOP-92 = test system: HOP-92
Malme-3M = test system: Malme-3M
OVCAR-4 = test system: OVCAR-4
MOLT-4 = test system: MOLT-4
UO-31 = test system: UO-31
T47D = test system: T47D
SNB-75 = test system: SNB-75
HCT-15 = test system: HCT-15
SF-295 = test system: SF-295
A549 = test system: A549
NCI-H522 = test system: NCI-H522
MDA-MB-435 = test system: MDA-MB-435
BT-549 = test system: BT-549
NCI-H460 = test system: NCI-H460
SW-620 = test system: SW-620
DU-145 = test system: DU-145
SF-268 = test system: SF-268
SNB-19 = test system: SNB-19
NCI-H226 = test system: NCI-H226
786-0 = test system: 786-0
TK-10 = test system: TK-10
ACHN = test system: ACHN
KM12 = test system: KM12
EKVX = test system: EKVX
NCI-H23 = test system: NCI-H23
SN12C = test system: SN12C
K562 = test system: K562
HCT-116 = test system: HCT-116
MDA-N = test system: MDA-N
UACC-62 = test system: UACC-62
HL-60 = test system: HL-60
SF-539 = test system: SF-539
SR = test system: SR
CCRF-CEM = test system: CCRF-CEM
LOX IMVI = test system: LOX IMVI
OVCAR-5 = test system: OVCAR-5
Hs-578T = test system: Hs-578T
UACC-257 = test system: UACC-257
OVCAR-8 = test system: OVCAR-8
SK-MEL-5 = test system: SK-MEL-5
COLO 205 = test system: COLO 205
RXF 393 = test system: RXF 393
SK-MEL-28 = test system: SK-MEL-28
RPMI-8226 = test system: RPMI-8226
IGROV-1 = test system: IGROV-1
HOP-62 = test system: HOP-62
CAKI-1 = test system: CAKI-1
A498 = test system: A498
HCC 2998 = test system: HCC 2998

Measured: GI50

O=C1CCC2(c3ccccc3)Nc3ccncc3N12 (configuration not stated)
> 10 µM: HCT-15
inactive: NCI/ADR-RES > 10 µM | M14 > 10 µM | MCF7 > 10 µM | MDA-MB-231 > 10 µM | PC-3 > 10 µM | OVCAR-3 > 10 µM | U-251 > 10 µM | HT-29 > 10 µM | SK-OV-3 3.49 µM | SK-MEL-2 > 10 µM | HOP-92 > 10 µM | Malme-3M > 10 µM | OVCAR-4 > 10 µM | MOLT-4 > 10 µM | UO-31 > 10 µM | T47D > 10 µM | SNB-75 > 10 µM | SF-295 > 10 µM | A549 > 10 µM | NCI-H522 > 10 µM | MDA-MB-435 > 10 µM | BT-549 > 10 µM | NCI-H460 > 10 µM | SW-620 > 10 µM | DU-145 > 10 µM | SF-268 > 10 µM | SNB-19 > 10 µM | NCI-H226 > 10 µM | 786-0 > 10 µM | TK-10 > 10 µM | ACHN > 10 µM | KM12 > 10 µM | EKVX > 10 µM | NCI-H23 > 10 µM | SN12C > 10 µM | K562 > 10 µM | HCT-116 > 10 µM | MDA-N > 10 µM | UACC-62 > 10 µM | HL-60 > 10 µM | SF-539 > 10 µM | SR > 10 µM | CCRF-CEM > 10 µM | LOX IMVI > 10 µM | OVCAR-5 > 10 µM | Hs-578T > 10 µM | UACC-257 > 10 µM | OVCAR-8 > 10 µM

CC[C@@H]1CC[C@@H]2[C@H](CC[C@]3(C)[C@@H](O)CC[C@@H]23)[C@H]1C(=O)O
inactive: NCI/ADR-RES > 100 µM | M14 > 100 µM | MCF7 > 100 µM | MDA-MB-231 > 100 µM | PC-3 > 100 µM | OVCAR-3 > 100 µM | SK-MEL-5 > 100 µM | COLO 205 > 100 µM | U-251 > 100 µM | HT-29 > 100 µM | SK-OV-3 > 100 µM | SK-MEL-2 > 100 µM | HOP-92 > 100 µM | Malme-3M > 100 µM | OVCAR-4 > 100 µM | MOLT-4 > 100 µM | UO-31 > 100 µM | T47D > 100 µM | RXF 393 > 100 µM | SNB-75 18.8 µM | SK-MEL-28 > 100 µM | SF-295 > 100 µM | RPMI-8226 > 100 µM | A549 > 100 µM | NCI-H522 > 100 µM | IGROV-1 > 100 µM | MDA-MB-435 > 100 µM | BT-549 > 100 µM | NCI-H460 > 100 µM | HOP-62 > 100 µM | SW-620 > 100 µM | DU-145 > 100 µM | SF-268 > 100 µM | SNB-19 > 100 µM | NCI-H226 > 100 µM | 786-0 > 100 µM | TK-10 > 100 µM | ACHN > 100 µM | KM12 > 100 µM | EKVX > 100 µM | NCI-H23 > 100 µM | CAKI-1 > 100 µM | SN12C > 100 µM | K562 > 100 µM | HCT-116 > 100 µM | MDA-N > 100 µM | UACC-62 > 100 µM | A498 > 100 µM | HL-60 > 100 µM | SF-539 > 100 µM | CCRF-CEM > 100 µM | HCC 2998 > 100 µM | LOX IMVI > 100 µM | OVCAR-5 > 100 µM | Hs-578T > 100 µM | UACC-257 > 100 µM | OVCAR-8 > 100 µM
> 100 µM: HCT-15
